Reference: US20250305004A1, “ENHANCING GENE TARGETING EFFICIENCY IN HUMAN CELLS WITH DNA-PK INHIBITOR TREATMENT” (The Board of Trustees of the Leland Stanford Junior …, priority 2022, published 2025)

Experiments:
ATM = target: T1, ATM (Homo sapiens, UniProt Q13315); conditions: A549 cells; cited from earlier work
T1 construct: various PI3K family kinases in A549 cells (data adapted from previous study); host or cells: A549 cells

HBB locus in PSCs = test: RNP/AAV6 gene targeting at HBB locus in PSCs; format: cell-based, human; conditions: UBC-GFP-bGHpA knock-in; 0.5 μM
Experimental: (§1) Gene targeting efficiency was measured by droplet digital PCR (ddPCR) and flow cytometry (for GFP) to measure the allelic targeting efficiency (FIG. 2B) and percentage of targeted cells (FIG. 2C) respectively. […] The treatment was carried out for 24 hours post gene targeting and the efficiency was calculated 1 week post gene targeting using ddPCR analysis.
(§2) First, we tested the treatment for editing the sickle cell disease (SCD) and cystic fibrosis (CF) mutations at HBB and CFTR loci respectively using the previously described Cas9 RNP and AAV6 donor reagents in WT PSC^71-73 (FIG. 19a-d).
PSC culture and genome editing. […] Gene targeting efficiency was analyzed at 4-6 days post-editing.
(§3) ddPCR analysis of targeted integration. Gene targeting efficiency for the knock-in of multi-kb sequences was measured through digital droplet PCR (ddPCR) analysis. […] After PCR, the droplets were analyzed using the QX200 Droplet Digital PCR reader (Biorad) and Quantasoft software was used to determine the number of copies of the target and reference DNA in the droplets. The allelic gene targeting efficiency was calculated as the percentage of target DNA copies relative to that of the reference. […]
(§4) ICE analysis for quantification of gene editing. […] Following PCR, the amplicons were detected on agarose gel and purified from the gel using GeneJet Gel Extraction Kit (Thermo Fisher Scientific, cat: K0692). […]

ATR = target: T2, ATR (Homo sapiens, UniProt Q13535); conditions: A549 cells; cited from earlier work
T2 construct: various PI3K family kinases in A549 cells (data adapted from previous study); host or cells: A549 cells

HBA1 locus in PSCs = test: RNP/AAV6 gene targeting / gene replacement at HBA1 locus in PSCs; format: cell-based, human
Experimental: as §1, §2
PSC culture and genome editing. […] For each nucleofection, RNP complex was prepared with 5 μg of Cas9 protein and 2 μg of gRNA and incubated for 15 mins at room temperature. PSCs were dissociated into single cells using Accutase (Innovative Cell Technologies, cat: AT104). […] Resuspended cells were added to one well of a 16-well Nucleocuvette Strip (Lonza) and nucleofection was performed in the 4D nucleofector (Lonza) using the program, CA137. Nucleofected PSCs were plated in mTeSR1 medium supplemented with 10 μM of Y27632 at a density of 100,000 cells per well in 48-well plate, AAV6 vector and DNA-PKcs inhibitors were added to the medium at indicated concentrations. […] From the following day, PSCs were cultured in mTeSR1 without Y27632. Gene targeting efficiency was analyzed at 4-6 days post-editing.
as §3, §4

PI3Kγ = target: T3, PI3Kγ (Homo sapiens, UniProt P48736); conditions: A549 cells; cited from earlier work
T3 construct: various PI3K family kinases in A549 cells (data adapted from previous study); host or cells: A549 cells

CCR5 locus in PSCs = test: RNP/AAV6 gene targeting at CCR5 locus, knock-in of UBC-GFP-bGHpA (2.6 kb), PSCs; format: cell-based, human; conditions: tested at 1, 0.1 and 0.01 μM
Experimental: as §1
PSC culture and genome editing. […] For each nucleofection, RNP complex was prepared with 5 μg of Cas9 protein and 2 μg of gRNA and incubated for 15 mins at room temperature. PSCs were dissociated into single cells using Accutase (Innovative Cell Technologies, cat: AT104). […] Gene targeting efficiency was analyzed at 4-6 days post-editing.
as §3, §4

T1 sequence (Q13315 whole entry): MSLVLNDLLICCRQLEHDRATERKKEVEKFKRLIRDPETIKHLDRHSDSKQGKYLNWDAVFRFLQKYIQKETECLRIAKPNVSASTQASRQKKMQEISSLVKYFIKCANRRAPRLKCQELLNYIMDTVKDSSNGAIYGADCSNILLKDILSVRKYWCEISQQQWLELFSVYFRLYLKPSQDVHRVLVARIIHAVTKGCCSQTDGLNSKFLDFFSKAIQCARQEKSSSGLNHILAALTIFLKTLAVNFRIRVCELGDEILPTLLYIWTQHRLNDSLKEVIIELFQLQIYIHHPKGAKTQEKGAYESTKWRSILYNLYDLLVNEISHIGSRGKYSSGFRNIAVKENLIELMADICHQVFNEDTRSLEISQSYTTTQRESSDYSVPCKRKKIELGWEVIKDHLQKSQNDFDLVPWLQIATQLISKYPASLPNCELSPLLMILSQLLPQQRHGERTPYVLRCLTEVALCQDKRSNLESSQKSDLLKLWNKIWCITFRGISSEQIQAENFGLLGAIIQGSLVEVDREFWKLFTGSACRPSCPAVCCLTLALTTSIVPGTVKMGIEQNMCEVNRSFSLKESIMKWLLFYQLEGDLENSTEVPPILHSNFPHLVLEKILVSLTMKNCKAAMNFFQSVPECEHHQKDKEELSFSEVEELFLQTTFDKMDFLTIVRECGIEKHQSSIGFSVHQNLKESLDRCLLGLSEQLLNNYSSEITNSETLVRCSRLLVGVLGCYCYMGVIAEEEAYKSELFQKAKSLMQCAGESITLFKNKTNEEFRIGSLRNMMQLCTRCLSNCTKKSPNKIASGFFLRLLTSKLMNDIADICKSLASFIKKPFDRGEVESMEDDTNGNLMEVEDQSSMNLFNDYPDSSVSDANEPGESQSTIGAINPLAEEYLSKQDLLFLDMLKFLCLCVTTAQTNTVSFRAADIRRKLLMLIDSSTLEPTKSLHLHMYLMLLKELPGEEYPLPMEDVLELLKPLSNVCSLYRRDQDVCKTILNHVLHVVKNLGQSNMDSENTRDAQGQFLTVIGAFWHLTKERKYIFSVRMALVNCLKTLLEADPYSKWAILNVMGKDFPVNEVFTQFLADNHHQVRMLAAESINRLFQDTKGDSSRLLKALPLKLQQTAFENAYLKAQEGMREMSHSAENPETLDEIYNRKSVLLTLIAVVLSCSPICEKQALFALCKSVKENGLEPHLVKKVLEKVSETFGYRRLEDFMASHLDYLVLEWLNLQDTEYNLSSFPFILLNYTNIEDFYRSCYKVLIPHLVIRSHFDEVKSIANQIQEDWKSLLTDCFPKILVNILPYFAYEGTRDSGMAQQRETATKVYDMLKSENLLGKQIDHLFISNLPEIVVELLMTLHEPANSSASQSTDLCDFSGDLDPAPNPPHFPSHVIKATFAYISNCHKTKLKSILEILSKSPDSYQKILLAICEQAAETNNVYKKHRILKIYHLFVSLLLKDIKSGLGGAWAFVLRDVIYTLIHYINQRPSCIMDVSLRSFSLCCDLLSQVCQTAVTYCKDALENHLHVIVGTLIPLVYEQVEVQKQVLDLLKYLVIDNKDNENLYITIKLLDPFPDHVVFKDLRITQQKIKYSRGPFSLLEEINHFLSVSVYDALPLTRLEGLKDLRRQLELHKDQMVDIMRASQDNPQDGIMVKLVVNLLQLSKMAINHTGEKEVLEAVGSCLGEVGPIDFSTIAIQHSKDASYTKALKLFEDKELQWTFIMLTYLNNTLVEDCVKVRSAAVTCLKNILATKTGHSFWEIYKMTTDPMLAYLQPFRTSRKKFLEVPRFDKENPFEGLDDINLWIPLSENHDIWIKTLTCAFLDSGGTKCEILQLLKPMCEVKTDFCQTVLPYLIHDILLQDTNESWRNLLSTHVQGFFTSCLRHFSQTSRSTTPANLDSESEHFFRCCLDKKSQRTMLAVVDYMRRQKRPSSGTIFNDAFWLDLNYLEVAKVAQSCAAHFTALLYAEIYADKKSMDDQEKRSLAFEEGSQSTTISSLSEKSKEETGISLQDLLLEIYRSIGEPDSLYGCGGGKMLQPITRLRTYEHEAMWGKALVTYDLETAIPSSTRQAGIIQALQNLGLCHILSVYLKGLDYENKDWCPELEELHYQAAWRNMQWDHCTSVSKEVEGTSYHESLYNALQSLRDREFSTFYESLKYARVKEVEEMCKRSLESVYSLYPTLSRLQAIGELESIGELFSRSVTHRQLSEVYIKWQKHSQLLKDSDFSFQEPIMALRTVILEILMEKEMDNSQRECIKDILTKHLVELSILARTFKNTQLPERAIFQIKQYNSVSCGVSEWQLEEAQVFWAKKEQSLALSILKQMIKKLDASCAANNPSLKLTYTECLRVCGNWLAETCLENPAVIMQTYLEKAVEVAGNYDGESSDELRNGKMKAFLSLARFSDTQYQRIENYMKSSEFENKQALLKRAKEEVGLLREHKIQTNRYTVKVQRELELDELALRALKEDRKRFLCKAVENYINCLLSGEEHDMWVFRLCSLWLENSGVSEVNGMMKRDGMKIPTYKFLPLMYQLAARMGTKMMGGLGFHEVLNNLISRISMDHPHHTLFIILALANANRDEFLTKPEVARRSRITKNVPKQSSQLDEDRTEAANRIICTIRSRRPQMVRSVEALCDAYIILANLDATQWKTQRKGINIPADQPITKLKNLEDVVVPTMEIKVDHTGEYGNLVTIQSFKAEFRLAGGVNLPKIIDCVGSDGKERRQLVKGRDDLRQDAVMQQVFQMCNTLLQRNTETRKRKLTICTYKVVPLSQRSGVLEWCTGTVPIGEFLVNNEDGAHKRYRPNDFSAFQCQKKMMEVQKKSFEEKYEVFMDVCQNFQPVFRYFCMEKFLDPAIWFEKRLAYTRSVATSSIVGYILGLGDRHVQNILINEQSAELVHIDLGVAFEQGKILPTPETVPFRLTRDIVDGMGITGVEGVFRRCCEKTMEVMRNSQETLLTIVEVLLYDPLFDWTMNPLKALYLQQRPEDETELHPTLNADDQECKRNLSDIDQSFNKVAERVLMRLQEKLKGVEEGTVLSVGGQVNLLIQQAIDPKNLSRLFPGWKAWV
T3 sequence (P48736 whole entry): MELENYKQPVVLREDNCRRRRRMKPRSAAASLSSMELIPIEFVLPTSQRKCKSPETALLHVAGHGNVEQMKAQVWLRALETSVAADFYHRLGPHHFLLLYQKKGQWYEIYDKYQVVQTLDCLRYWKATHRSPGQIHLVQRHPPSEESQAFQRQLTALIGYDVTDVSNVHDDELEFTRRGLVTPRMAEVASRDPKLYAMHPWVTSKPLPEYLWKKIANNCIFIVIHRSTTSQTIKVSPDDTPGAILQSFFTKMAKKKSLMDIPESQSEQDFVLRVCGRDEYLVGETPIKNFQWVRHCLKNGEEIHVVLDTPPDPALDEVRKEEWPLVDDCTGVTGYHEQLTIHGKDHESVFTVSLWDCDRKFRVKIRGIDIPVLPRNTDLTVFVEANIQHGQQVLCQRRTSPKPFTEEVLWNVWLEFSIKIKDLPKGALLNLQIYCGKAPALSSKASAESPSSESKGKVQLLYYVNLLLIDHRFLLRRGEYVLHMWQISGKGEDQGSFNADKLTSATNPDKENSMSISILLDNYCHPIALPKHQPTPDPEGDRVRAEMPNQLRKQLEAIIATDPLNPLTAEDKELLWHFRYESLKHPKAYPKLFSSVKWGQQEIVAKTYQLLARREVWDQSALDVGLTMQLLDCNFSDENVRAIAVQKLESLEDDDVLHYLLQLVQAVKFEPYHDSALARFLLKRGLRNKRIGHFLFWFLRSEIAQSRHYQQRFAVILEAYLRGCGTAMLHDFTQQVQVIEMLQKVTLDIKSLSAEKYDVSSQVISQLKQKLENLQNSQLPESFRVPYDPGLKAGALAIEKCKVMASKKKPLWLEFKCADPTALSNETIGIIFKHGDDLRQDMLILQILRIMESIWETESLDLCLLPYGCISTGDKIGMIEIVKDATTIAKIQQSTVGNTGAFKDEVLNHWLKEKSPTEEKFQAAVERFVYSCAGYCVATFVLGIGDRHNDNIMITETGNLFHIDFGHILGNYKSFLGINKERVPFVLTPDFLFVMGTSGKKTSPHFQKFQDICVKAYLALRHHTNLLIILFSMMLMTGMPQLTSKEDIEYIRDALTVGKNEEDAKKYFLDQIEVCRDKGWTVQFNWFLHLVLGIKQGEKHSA

SMILES: COc1ccc([C@@H](O)c2cc(-c3ncnc4cc(N5CCOCC5)ccc34)c(F)cc2Cl)nn1 [M3814]
- IC50 (ATM): > 30 µM
- effect on gene targeting vs untreated (HBB locus in PSCs): less prominent effect
- IC50 (ATR): > 30 µM
- effect on gene targeting vs untreated (HBA1 locus in PSCs; 0.5 μM): less prominent effect
- concentration at which gene replacement is improved (HBA1 locus in PSCs; tested at 2 and 0.5 μM): effective only at the higher concentration
- IC50 (PI3Kγ): 1.59 µM
- concentration at which gene targeting is enhanced (CCR5 locus in PSCs): effective only at 1 μM
